# ChEMBL document CHEMBL5370621, “Design, Synthesis, and Biological Evaluation of Novel Thioureidobenzamide (TBA) Derivatives as HBV Capsid Assembly Modulators” (J Med Chem, 2023)
# Activity calls are given as the source filed them. The rule behind the calls is not given here.
# Columns and labels:
# [1] = Selectivity index, ratio of CC50 for cytotoxicity against human HePAD38 cells to EC50 for antiviral activity against Hepatitis B virus infected in human HePAD38 cells; assay type: toxicity, cell-based; settings: read-out: Ratio CC50/EC50
# Hepatitis B virus [2] = test: Antiviral activity against Hepatitis B virus infected in human HePAD38 cells assessed as inhibition of viral DNA replication by qPCR analysis; assay type: functional, organism-based
# [3] = Cytotoxicity against human HePAD38 cells assessed as reduction in cell viability incubated for 72 hrs by CCK8 assay; assay type: toxicity, cell-based
# Core antigen = Core antigen (Hepatitis B virus, UniProt Q03732); test: Inhibition of fluorescent-labeled capsid assembly in Hepatitis B virus incubated for 1 hr by fluorescence based analysis
# [4] = Half life in human liver microsomes at 100 uM preincubated for 10 mins followed by incubation with NADPH regenerating system for 30 mins by LC-MS/MS analysis; assay type: ADME, Microsome; settings: time 40 min
# [5] = Intrinsic clearance in human liver microsomes at 100 uM preincubated for 10 mins followed by incubation with NADPH regenerating system for 30 mins and measured per mg protein by LC-MS/MS analysis; assay type: ADME, Microsome; settings: time 40 min, read-out: CLH
# [6] = Metabolic stability of the compound in human liver microsomes assessed as parent compound remaining at 100 uM incubated for 60 mins in presence of NADPH by LC-MS/MS analysis; assay type: ADME, Microsome; settings: read-out: Stability
# [7] = Metabolic stability of the compound in human liver microsomes assessed as parent compound remaining at 100 uM incubated for 60 mins in absence of NADPH by LC-MS/MS analysis; assay type: ADME, Microsome; settings: read-out: Stability
# [8] = Half life in human plasma at 100 uM by LC-MS/MS analysis; assay type: ADME, cell-free
# [9] = Half life in Sprague-Dawley rat at 2 mg/kg, iv by LC-MS/MS analysis; assay type: ADME, organism-based; settings: in vivo
# [10] = Cmax in Sprague-Dawley rat at 2 mg/kg, iv by LC-MS/MS analysis; assay type: ADME, organism-based; parameters: dose 2 mg/kg, route iv; settings: in vivo
# [11] = AUC(0 to t) in Sprague-Dawley rat at 2 mg/kg, iv by LC-MS/MS analysis; assay type: ADME, organism-based; parameters: dose 2 mg/kg, route iv; settings: in vivo
# [12] = AUC(0 to infinity) in Sprague-Dawley rat at 2 mg/kg, iv by LC-MS/MS analysis; assay type: ADME, organism-based; parameters: dose 2 mg/kg, route iv; settings: in vivo
# [13] = Volume of distribution at steady state in Sprague-Dawley rat at 2 mg/kg, iv by LC-MS/MS analysis; assay type: ADME, organism-based; settings: in vivo
# [14] = MRT(0 to t) in Sprague-Dawley rat at 2 mg/kg, iv by LC-MS/MS analysis; assay type: ADME, organism-based; settings: in vivo
# [15] = Half life in Sprague-Dawley rat at 20 mg/kg, po by LC-MS/MS analysis; assay type: ADME, organism-based; settings: in vivo
# [16] = Tmax in Sprague-Dawley rat at 20 mg/kg, po by LC-MS/MS analysis; assay type: ADME, organism-based; settings: in vivo
# [17] = Cmax in Sprague-Dawley rat at 20 mg/kg, po by LC-MS/MS analysis; assay type: ADME, organism-based; parameters: dose 20 mg/kg, route po; settings: in vivo
# [18] = AUC(0 to t) in Sprague-Dawley rat at 20 mg/kg, po by LC-MS/MS analysis; assay type: ADME, organism-based; parameters: dose 20 mg/kg, route po; settings: in vivo
# [19] = AUC(0 to infinity) in Sprague-Dawley rat at 20 mg/kg, po by LC-MS/MS analysis; assay type: ADME, organism-based; parameters: dose 20 mg/kg, route po; settings: in vivo
# [20] = MRT(0 to t) in Sprague-Dawley rat at 20 mg/kg, po by LC-MS/MS analysis; assay type: ADME, organism-based; settings: in vivo
# [21] = MRT(0 to infinity) in Sprague-Dawley rat at 20 mg/kg, po by LC-MS/MS analysis; assay type: ADME, organism-based; settings: in vivo
# [22] = Oral bioavailability in Sprague-Dawley rat at 20 mg/kg by LC-MS/MS analysis; assay type: ADME, organism-based; settings: in vivo
# [23] = Cytotoxicity against human HLCZ01 cells assessed as reduction in cell viability upto 30 uM incubated for 72 hrs by CCK8 assay; assay type: toxicity, cell-based; settings: hlcz01, 72 h
# Hepatitis B virus [24] = test: Antiviral activity against Hepatitis B virus infected in human HLCZ01 cells assessed as inhibition of HBV virion production by measuring inhibition of viral DNA replication incubated for 6 days by qPCR analysis; assay type: functional, organism-based
# Hepatitis B virus [25] = test: Antiviral activity against Hepatitis B virus infected in human HLCZ01 cells assessed as reduction in HBsAg level at 0.03 to 3 uM incubated for 6 days by ELISA; assay type: functional, organism-based; settings: dose 0.03-3 µM, time 6.0 day
# Hepatitis B virus [26] = test: Antiviral activity against Hepatitis B virus infected in C57BL/6J mouse assessed as inhibition of viral DNA level in serum at 25 mg/kg/day, po for 18 days by qPCR analysis; assay type: functional, organism-based; settings: time 18.0 day
# Hepatitis B virus [27] = test: Antiviral activity against Hepatitis B virus infected in C57BL/6J mouse assessed as reduction in HBcAg expression […] at 25 mg/kg/day, po for 18 days by immunohistochemistry; assay type: functional, organism-based; settings: time 18.0 day
# Hepatitis B virus [28] = test: Antiviral activity against Hepatitis B virus infected in C57BL/6J mouse assessed as reduction in HBsAg level in serum at 25 mg/kg/day, po for 18 days by ELISA; assay type: functional, organism-based; settings: time 18.0 day
# [29] = Hepatotoxicity in C57BL/6J mouse infected with Hepatitis B virus assessed as serum ALT level at 25 mg/kg/day, po for 18 days by colorimetry; assay type: toxicity, organism-based; settings: in vivo, 432 h, time 18 day
# [30] = Hepatotoxicity in C57BL/6J mouse infected with Hepatitis B virus assessed as serum AST level at 25 mg/kg/day, po for 18 days by colorimetry; assay type: toxicity, organism-based; settings: in vivo, 432 h, time 18 day
# Chain of Core antigen (Q03732 whole entry): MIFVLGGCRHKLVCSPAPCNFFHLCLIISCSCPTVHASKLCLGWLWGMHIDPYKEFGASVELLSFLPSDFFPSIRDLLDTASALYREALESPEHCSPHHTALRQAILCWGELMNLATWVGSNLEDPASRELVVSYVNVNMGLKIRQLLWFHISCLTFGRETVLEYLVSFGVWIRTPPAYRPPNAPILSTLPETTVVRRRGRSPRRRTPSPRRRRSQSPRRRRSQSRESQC
structure (smiles),measurement,setting,value
C=CCNC(=S)Nc1cc(C(=O)Nc2ccc(F)c(C)c2)c(C)cc1F,selectivity ratio,[1],2210
same,EC50,Hepatitis B virus [2],12 nM
same,CC50 at 72 h,[3],26600 nM
same,IC50,Core antigen,880 nM
same,half-life at 100 µM,[4],0.635 h
same,microsomal CLint at 100 µM,[5],36.4 µL/min/mg
same,"remaining at 1 h, 100 µM",[6],31.2%
same,"remaining at 1 h, 100 µM",[7],72.6%
same,half-life at 100 µM,[8],0.9 h
same,half-life,[9],0.98 h
same,Cmax,[10],5390 ng/mL
same,AUC(0-t),[11],3260 ng·h/mL
same,AUC(0-inf),[12],3260 ng·h/mL
same,Vdss,[13],0.51 L/kg
same,MRT last,[14],0.82 h
same,half-life,[15],1.67 h
same,Tmax,[16],1.83 h
same,Cmax,[17],4770 ng/mL
same,AUC(0-t),[18],22000 ng·h/mL
same,AUC(0-inf),[19],22000 ng·h/mL
same,MRT last,[20],3.16 h
same,MRT inf,[21],3.26 h
same,bioavailability,[22],67.7%
same,Activity,[23],Non-Toxic
same,EC50,"Hepatitis B virus [24]; HLCZ01, 144 h",33 nM
same,Activity,Hepatitis B virus [24]; time 6.0 day,Dose-Dependent Effect
same,Activity,Hepatitis B virus [25],inactive
same,Activity,Hepatitis B virus [26],Active
same,Activity,Hepatitis B virus [27],Active
same,Activity,Hepatitis B virus [28],inactive
same,Activity,[29],Non-Toxic
same,Activity,[30],Non-Toxic
O=C(O)Cc1ccccc1Nc1c(Cl)cccc1Cl [DICLOFENAC],microsomal CLint at 100 µM,[5],257 µL/min/mg
CCOC(=O)C1=C(CN2CCOCC2)NC(c2nccs2)=N[C@H]1c1ccc(C)cc1Br,selectivity ratio,[1],> 5920
same,EC50,Hepatitis B virus [2],17 nM
same,CC50 at 72 h,[3],> 100000 nM
same,IC50,Core antigen,860 nM
